# Measurements as given in patent US11819492B2, “Natural product derivatives for inhibiting cellular necroptosis, ferroptosis and oxytosis” (Institut National de la Sante et de la Recherche Medicale …, priority 2016, dated 2023).
# Tests used:
# [1] = tested on: Jurkat FADD-deficient I 2.1 cell line; assay: TNF-α-induced necroptosis in Jurkat FADD-deficient cells, MTS viability assay; assay type: cell-based, human; conditions: TNF-α 10 ng/ml, 24 hours
# Description: TNF-α can induce necroptosis in Jurkat cells (human T lymphocytes) when FADD is deleted. This model was used to screen various libraries of chemical compounds for characterization of new inhibitors of cellular necroptosis. Details on this cell-based assay can be found in Miao and Degterev (Methods Mol. Biol. 2009, 559, 79-93). The Jurkat FADD-deficient I 2.1 cell line used was purchased from ATCC and was maintained in RPMI 1640 medium (Gibco) containing Glutamax and 15% fetal calf serum (Life Technology). Necroptosis was induced by addition of 10 ng/ml of human recombinant TNF-α (Life Technology). Necrostatin-1 (Nec-1, Enzo Life Sciences) was used as model necroptosis inhibitor. Cells were maintained in 75 cm^2 flask and passed every 2 or 3 days. Chemical collections analysed were formatted in 96-well plates with 80 molecules per plate at 10 mM in 100% DMSO. […]
# (§1) Cells were incubated at 37° C., 5% CO2 for 24 hours before performing MTS viability assay. Cell viability was monitored using CellTiter 96® AQueous Non-Radioactive Cell Proliferation Assay (Promega, Fitchburg, WI, USA), based on the water-soluble tetrazolium compound MTS (3-[4,5-dimethylthiazol-2-yl]-5-[3-carboxymethoxy-phenyl]-2-[4-sulfophenyl]-2H-tetrazolium, inner salt) according to the manufacturers instructions.
# [2] = tested on: Human Peripheral Blood Lymphocytes (hPBLs); assay: Cytotoxicity on human peripheral blood lymphocytes (MTS); assay type: cell-based; conditions: 0-100 μM tested, 24 hours, FIG. 4
# Protocol: Viability was assessed by cell proliferation assay (MTS). % of cell viability was determined using the CellTiter 96® AQueous Non-Radioactive Cell Proliferation Assay (Promega). Data represent the quantitative analysis of six independent experiments with means±SD (n=6 individuals).
# hRPE-1 cells = assay: Cytotoxicity on human retinal pigment epithelial cell line (MTS); assay type: cell-based; conditions: 0-50 μM tested, 24 hours, FIG. 5
# Description: A colorimetric MTS assay was used to calculate the percentage of cell viability.
# [3] = tested on: Human endothelial cells (HAEC); assay: In vitro hypoxic cold storage viability assay; assay type: cell-based
# Protocol: Human endothelial cells (HAEC) were grown to confluence, then synchronized using depleted media for 16h. For hypothermia/hypoxia, cells were washed twice with PBS then incubated in University of Wisconsin (UW) solution in 95% N2/5% CO2 atmosphere at 4° C. for 24 hours. […] Shown are mean+/−SD, n=3. UW are cells treated only with UW preservation solution. Controls are cells not subjected to this protocol (cells are continuously oxygenated) but cultivated for the same amount of time in regular culture conditions. […] It should be noted that the hypoxic cold storage mimics the process occurring during graft preservation.
# [4] = tested on: Murine hippocampal neuronal cell line HT22; assay: L-glutamate-induced oxytosis in HT22 cells, MTS viability assay; assay type: cell-based; conditions: 10 mM L-glutamate, 24 hours, FIG. 14
# Protocol: (§2) Murine hippocampal neuronal cell line HT22 was treated with 10 mM of (L)-glutamate (oxytosis initiator) or 1 μM erastin (ferroptosis initiator).
# as §1, with “were then” for “were”
# [5] = tested on: Murine hippocampal neuronal cell line HT22; assay: Erastin-induced ferroptosis in HT22 cells, MTS viability assay; assay type: cell-based; conditions: 1 μM erastin, 24 hours, FIG. 14
# Protocol: as §2
# as §1, with “were then” for “were”
# [6] = tested on: Porcine LLC-PK1 cells (kidney proximal tubule cell line); assay: Cold-induced cell death (cold storage), MTS viability assay; assay type: cell-based; conditions: 24 hours at 4° C.
# Protocol: At it was previously shown (Ahlenstiel et al. Transplantation […], 81(2), 231-239), cold storage induces a cell-death process. Porcine LLC-PK1 cells (kidney proximal tubule cell line) were stored at approximately 4° C. during 24 hours with or without the tested molecules. […] Cells were then incubated at 37° C., 5% CO2 before performing MTS viability assay. Cell viability was monitored using CellTiter 96® AQueous Non-Radioactive Cell Proliferation Assay (Promega, Fitchburg, WI, USA), based on the water-soluble tetrazolium compound MTS (3-[4,5-dimethylthiazol-2-yl]-5-[3-carboxymethoxy-phenyl]-2-[4-sulfophenyl]-2H-tetrazolium, inner salt) according to the manufacturers instructions.
compound,measurement,setting,value
COc1cc(O)c2c(c1)OC(O)(c1ccc(OCc3ccccc3)cc1)CC2=O (centres unmarked) [compound 1],protection of cell viability from death induced by TNF-α,"[1]; 0.01-50.00 μM, FIG. 1",protects cells from death induced by TNF-α
same,necroptosis inhibition in the library screening,[1]; screening at 10 μM,very efficient necroptosis inhibitor
same,concentration up to which not cytotoxic towards hPBLs,[2],≤ 20 µM
same,cytotoxicity towards hRPE-1 cells,hRPE-1 cells,not cytotoxic
same,"cell survival, treatment during hypoxia","[3]; UW solution, 95% N2/5% CO2, 4° C., 24 hours, FIG. 10",measurable benefits on cell survival
same,"cell survival, treatment during hypoxia and reoxygenation","[3]; UW solution, 95% N2/5% CO2, 4° C., 24 hours, then reoxygenation, FIG. 11",measurable benefits on cell survival
same,effect on cell survival compared to the control inhibitors of necroptosis (Nec-1 and Nec-1s),[3]; hypoxic cold storage,significantly better
same,concentration that protects cells from death induced by L-glutamate,[4],> 25 µM
same,concentration that protects cells from death induced by erastin,[5],> 25 µM
same,protection from death induced by cold storage,"[6]; 0.01-50.00 μM, FIGS. 16a, 16b",protects cells from death induced by cold storage
same,concentration of maximal activity against cold-induced cell death,[6],504
